# Data: patent US20250057910A1, “Application of Polypeptide in Preparation of Product for Preventing or Treating Skin Injury Diseases” (Sichuan Gooddoctor Panxi Pharmaceutical Co., Ltd., priority 2021, published 2025)
# Ends that are not written are not given here.
# Tests used:
# [1] = test system: STZ-induced diabetic rats; assay: Healing of skin ulcer in streptozotocin (STZ)-induced diabetic rats; type: in vivo, rat; details: for Wound healing rates of diabetic rats: Mean ± SD, n = 15
# Description: Experimental animals: After SPF grade male healthy SD rats (weighing 180-200 g) were fed with high-fat and high-sugar diet for 2 weeks and fasted for 6 hours, each rat was rapidly injected with an STZ solution (50 mg kg^−1) intraperitoneally at one time, and 48 hours later, the random blood glucose values were >16.7 mmol/L twice, indicating the successful establishment of type II diabetic rat model. Experimental animals were purchased from Beijing Vital River Laboratory Animal Technology Co., Ltd., with the experimental animal quality certification number of SCXK (Beijing) 2017-0033, and the experimental animal use license number of SCXK (Beijing) 2017-0033.
# Experimental method: 90 diabetic rats were selected and randomly divided into 6 groups with 15 rats in each group, namely, model control group (normal saline), high-dose polypeptide group (30 μg/cm^2), medium-dose polypeptide group (10 μg/cm^2), and low-dose polypeptide group (3 μg/cm^2), GeneTime group (40 IU/cm^2, recombinant human epidermal growth factor topical solution, from Shenzhen Watsin Genetech Ltd.), and Kangfuxin Ye group (36 μL/cm^2, Kangfuxinye, from SICHUAN GOODDOCTOR PANXI PHARMACEUTICAL CO., LTD.). After each experimental rat was anesthetized by intraperitoneal injection of 2% pentobarbital sodium (0.2 mL/100 g), a 2 cm^2 full-layer skin defect wound was prepared at each of both sides of the back spine, and a rubber ring with a diameter of 2.3 cm was stitched at the outer edge of the wound. After hemostasis of the wound, local drug therapy at the wound was carried out by group. Except that the Kangfuxin Ye group was administered 2 times/day, other groups were administered once a day, with a dosed volume of 72 μL/wound each time, for 14 consecutive days. After the administration, the wound was covered with a sterile vaseline gauze (5 cm*5 cm), and bandaged with multi-layer sterile gauzes. After the wound surgery, the wound was photographed, and the wound area was recorded as the baseline value (the wound was recorded as Day0). During the administration period, the wound areas were photographed and measured 3 times a week, and the granulation tissue growth and healing of wound in each group were observed every day.
# [2] = test system: Wild-type AB-line zebrafish; assay: Tissue regeneration in zebrafish with caudal fin damage; type: in vivo; details: 250, 500 and 1000 μg/mL in water, 28° C., 3 days; vs model control; FIG. 5
# Description: Experimental animals: Wild-type AB-line zebrafish, raised in water for culturing fish at 28° C. (water quality: 200 mg of instant dissolving sea salt being added to every 1 L of water made by reverse osmosis, with a conductivity of 450-550 μS/cm, a pH of 6.5-8.5 and a hardness of 50-100 mg/L CaCO3), at the age of 3 days post fertilization (3 dpf). The animals were provided by the fish breeding center of Hangzhou Hunter Biotechnology Co., Ltd. with the experimental animal use license number of SYXK (Zhejiang) 2012-0171, and the breeding management complied with the requirements of international AAALAC certification (certification number: 001458).
# Experimental method: 3 dpf wild AB-line zebrafish were randomly selected, and the caudal fins of zebrafish was excised to establish a model of caudal fin damage in zebrafish. […] Treatment was performed at 28° C. for 3 days, 10 zebrafish were randomly selected in each experimental group and placed under an anatomical microscope to take photos, the data were analyzed and collected using NIS-Elements D 3.20 advanced image processing software, the regeneration areas of caudal fins of zebrafish were analyzed, and the statistical analysis results of this index were used to evaluate the efficacy of the samples of promoting tissue regeneration.
# [3] = test system: Balb-3T3 cells (mouse embryo fibroblasts); assay: Proliferation of Balb-3T3 cells (CCK-8); type: cell-based; details: 48 hours, 2.5% FBS maintenance medium, FIG. 3
# Description: Experimental method: Mouse embryo fibroblasts (Balb-3T3 cells) were cultured in 10% serum medium at 37° C. and 5% CO2, the culture fluid was changed every 1-2 days, and the cell concentration was controlled to be 4*10^6 cells/mL for passaging. The cells were collected and prepared into a concentration of 3* 10^4 cells/mL with 2.5% FBS maintenance medium, seeded into a 96-well cell culture plate with 100 uL per well, i.e., 3000 cells/well, and cultured at 37° C. and 5% CO2 to be adherent.
# The polypeptide was dissolved in 2.5% FBS maintenance medium and prepared into a stock solution with a concentration of 1 mg/mL. The polypeptide stock solution was prepared with 2.5% FBS maintenance medium to test concentrations as the experimental groups; in the same manner, recombinant human basic fibroblast growth factor FGF (50 ng/mL), and recombinant human platelet derived growth factor PDGF-BB (30 ng/mL) were prepared and added as positive control; and for the blank control group, the same volume of 2.5% FBS maintenance medium was added. For all the groups, 5 duplicate wells were incubated at 37° C. and 5% CO2 for 48 hours. CCK-8 was used to detect cell proliferation: the serum-free medium containing 10% CCK-8 was added to each well, and absorbances were measured at 450 nm by microplate reader after incubation in an incubator for 2 hours.
sequence,measurement,setting,value
PAAEPVPL [polypeptide],Formation rate of new granulation tissues,"[1]; 3rd day after injury, low-, medium- and high-dose (3, 10, 30 μg/cm^2), vs model control, FIG. 8",promoted the growth rate of new granulation tissue compared to the model control group with significant differences
same,Wound healing rates of diabetic rats,"[1]; Day 0 (baseline), high-dose 30 μg/cm^2, topical once a day",0.00 ± 0.00%
same,Wound healing rates of diabetic rats,"[1]; Day 0 (baseline), low-dose 3 μg/cm^2, topical once a day",0.00 ± 0.00%
same,Wound healing rates of diabetic rats,"[1]; Day 0 (baseline), medium-dose 10 μg/cm^2, topical once a day",0.00 ± 0.00%
same,Wound healing rates of diabetic rats,"[1]; Day 3, high-dose 30 μg/cm^2, topical once a day",6.82 ± 19.81%
same,Wound healing rates of diabetic rats,"[1]; Day 3, low-dose 3 μg/cm^2, topical once a day",3.05 ± 8.10%
same,Wound healing rates of diabetic rats,"[1]; Day 3, medium-dose 10 μg/cm^2, topical once a day",5.04 ± 9.31%
same,Wound healing rates of diabetic rats,"[1]; Day 7, high-dose 30 μg/cm^2, topical once a day",62.62 ± 12.24%
same,Wound healing rates of diabetic rats,"[1]; Day 7, low-dose 3 μg/cm^2, topical once a day",54.67 ± 18.10%
same,Wound healing rates of diabetic rats,"[1]; Day 7, medium-dose 10 μg/cm^2, topical once a day",57.57 ± 10.49%
same,Wound healing rates of diabetic rats,"[1]; Day 10, high-dose 30 μg/cm^2, topical once a day",88.49 ± 5.17 %
same,Wound healing rates of diabetic rats,"[1]; Day 10, low-dose 3 μg/cm^2, topical once a day",84.05 ± 10.21%
same,Wound healing rates of diabetic rats,"[1]; Day 10, medium-dose 10 μg/cm^2, topical once a day",84.26 ± 9.10%
same,Wound healing rates of diabetic rats,"[1]; Day 12, high-dose 30 μg/cm^2, topical once a day",98.39 ± 2.39%
same,Wound healing rates of diabetic rats,"[1]; Day 12, low-dose 3 μg/cm^2, topical once a day",95.92 ± 5.82%
same,Wound healing rates of diabetic rats,"[1]; Day 12, medium-dose 10 μg/cm^2, topical once a day",97.77 ± 3.71%
same,Wound healing rates of diabetic rats,"[1]; Day 14, high-dose 30 μg/cm^2, topical once a day",99.85 ± 0.77%
same,Wound healing rates of diabetic rats,"[1]; Day 14, low-dose 3 μg/cm^2, topical once a day",99.46 ± 1.46%
same,Wound healing rates of diabetic rats,"[1]; Day 14, medium-dose 10 μg/cm^2, topical once a day",99.85 ± 0.84%
same,Wound healing in diabetic rats (statement in words),"[1]; high-dose 30 μg/cm^2, vs model control, Day 10",significant healing promoting effect
same,Wound healing in diabetic rats (statement in words),"[1]; low and medium doses (3 and 10 μg/cm^2), Day 10, vs model control",tendency to promote the wound healing
same,Zebrafish caudal fin regeneration (regeneration area),[2],significantly promoting tissue regeneration
same,Proliferation-promoting effect on the Balb-3T3 cell line,[3],significant effect of promoting proliferation
